Assays:
[1] = Phase 1 multiple ascending dose (MAD) pharmacokinetics; type: in vivo, human
Experimental: A two-part randomized, double-blind, placebo-controlled Phase 1 trial was conducted to assess the safety, tolerability, PK and PD of SRP-001 ascending doses (Quotient Sciences, Miami, FL USA). The study was conducted in accordance with the International Council for Harmonisation of Technical Requirements for Pharmaceuticals for Human Use (ICH), Guideline for GCP: Consolidated Guidance (E6), and applicable regulatory requirements(s) including clinical research guidelines established by the Basic Principles defined in the U.S. 21 CFR Parts 50, 56, and 312 and the principles enunciated in the Declaration of Helsinki (revised version Fortaleza 2013). The clinical protocol and informed consent form were reviewed and approved by an Institutional Review Board (IRB; Advarra IRB, 6100 Merriweather Drive, Suite 600, Columbia, MD 21044; Quotient Protocol No. SRP-101 and Quotient Sciences Study No. QSC205130; Quotient Sciences Miami, 3898 NW 7th Street, Miami, FL 33126.). The study comprises a SAD (Part 1) assessment that includes a food effect assessment that contributes data to inform a subsequent MAD (Part 2) dose-ranging study. Safety measurements were collected throughout the study for all subjects. Blood samples were collected to determine the PK parameters of SRP-001. ClinicalTrials.gov identifier: NCT05484414

male Sprague-Dawley rats = conditions: rat, in vivo
Experimental: 1) Dose-Range-Finding Oral Toxicity Study with SRP-001 in Sprague-Dawley Rats (non-GLP) As part of a two-phase study, the maximum tolerated dose (MTD) of SRP-001 when administered via gavage once to Sprague-Dawley Rats using an ascending/descending dose design (Calvert Labs/Altasciences, Scott Township, PA USA). A total of 12 male Sprague-Dawley rats (3/dose group), approximately 8-9 weeks old and weighing 245-307 g, were administered single doses of […], 1000, 1500, or 2000 mg/kg SRP-001. Mortality/morbidity was performed twice daily and once prior to scheduled sacrifice. Clinical observations were evaluated prior to each dose administration and approximately 1-3 h post-dose, once daily on non-dosing days and additionally as needed. Body weights were recorded for animals in Groups 1-4 prior to randomization/selection, each dose administration, and scheduled sacrifice on day 3. Food consumption was recorded on day 3. […] Based on the results of this study, doses for the second phase were selected.

Sprague-Dawley rats = test: 5-day repeat-dose oral toxicity and toxicokinetics in Sprague-Dawley rats (non-GLP); type: in vivo, rat
Experimental: 4) A Dose-Range-Finding Oral Toxicity Study with SRP-001 in Sprague-Dawley Rats (Non-GLP) As part of a two-phase study, repeat-dose toxicity and toxicokinetics of SRP-001, when administered via oral gavage once daily to Sprague-Dawley rats for 5 d, was done (Calvert Labs/Altasciences, Scott Township, PA USA). The doses selected for Phase II were based on the results of Phase I. SRP-001 was administered to 20 naïve rats (5/group in Groups 5-8) once daily for 5 days via oral gavage for toxicology evaluation and once to 18 naïve rats (6/group in Groups 9-11) for toxicokinetic evaluation.
Mortality/morbidity was performed twice daily and once prior to sacrifice. Clinical observations were evaluated prior to each dose administration and approximately 1-3 h post-dose for animals in Groups 5-8. Body weights were recorded prior to randomization/selection, prior to dose administration on day 1 for animals in Groups 5-11, and prior to dose administration on day 5 for Groups 5-8. Food consumption was recorded for animals from Groups 5-8 on day 5. Blood for evaluation of hematology, coagulation and clinical chemistry and urine for urinalysis was collected from animals in Groups 5-8 on day 6. All animals in Groups 5-8 were sacrificed on […]. Selected tissues were harvested at necropsy, selected organs weighed, and selected tissues preserved. Blood for toxicokinetic evaluation was collected from animals in Groups 9-11 at selected timepoints on day 1 to ensure comprehensive data capture. These timepoints include 0 hour (pre-dose) and post-dose intervals of 1, 2, 4, 8, and 24 hours on both Day 1 and […] of the study. This schedule allows for a robust assessment of SRP-001's pharmacokinetic profile, including absorption, distribution, metabolism, and excretion and is in line with current FDA-guidelines for GLP studies.

Beagle dogs = test: 7-day repeat-dose oral toxicity study in Beagle dogs, Phase II (non-GLP); type: in vivo, dog
Experimental: 7) A Dose-Range-Finding and 7-day Repeat-Dose Oral Toxicity Study of SRP-001 in Beagle dogs (Non-GLP) In Phase II of this study, 0, 30, 100, or 300 mg/kg/d of SRP-001 was administered once daily for seven consecutive days to 1 Beagle dog/sex/dose (Calvert Labs/Altasciences, Scott Township, PA USA). Mortality/morbidity was observed twice daily and once prior to scheduled sacrifice. Clinical observations were evaluated prior to each dose administration and at approximately 1-3 h post-dose and once prior to scheduled sacrifice on day 8. Body weights were recorded on days 1 and 7, and a fasted body weight was recorded prior to scheduled sacrifice on day 8. Food consumption was recorded daily. Blood for evaluation of hematology, coagulation, and clinical chemistry parameters and urine for urinalysis was collected from all animals prior to treatment initiation and from all Phase II animals prior to scheduled sacrifice on day 8. Blood for toxicokinetic evaluation was collected at selected time points on days 1 and 7. Selected tissues were harvested and weighed at necropsy. No microscopic evaluations were performed. […] The clinical observations corroborated with findings of red discoloration in the duodenum of the control group female, the jejunum of the low-dose male, and the colon of both high-dose dogs.

CCN(CC)C(=O)c1ccccc1S(=O)(=O)NCC(=O)Nc1ccc(O)cc1 [SRP-001, N,N-diethyl-2-[[2-(4-hydroxyanilino)-2-oxo-ethyl]sulfamoyl]benzamide]
T1/2, geometric mean ([1]; MAD 500 mg, Day 1): 3.06 h | T1/2, geometric mean ([1]; MAD 1,000 mg, Day 1): 4.05 h | T1/2, geometric mean ([1]; MAD 1,000 mg, Day 5): 9.77 h | T1/2, arithmetic mean ([1]; MAD cohorts): 5.57 h | PK parameters on Day 5 versus Day 1 ([1]; Phase 1 MAD cohort): demonstrated a decrease | half-life ([1]; human, blood, summary aspect, read-out: half-life in said subject): 4.9 to 9.8 h | clinical observations after single dose (male Sprague-Dawley rats): Nearly all the animals appeared normal following dosing | mortality after single doses (male Sprague-Dawley rats): did not result in any mortality | liver weights and cholesterol (Sprague-Dawley rats; 5 days oral gavage): increases in absolute and relative liver weights and increased cholesterol levels | tolerated dose (Sprague-Dawley rats; Sprague-Dawley, rat, in vivo, 5 d): 1200 mg/kg | AUC and Cmax levels (Sprague-Dawley rats; day 1 toxicokinetics): increased in a dose-dependent manner | half-life (Sprague-Dawley rats; high dose): 6.86 h | Tmax (Sprague-Dawley rats; low dose): 3 h | Tmax (Sprague-Dawley rats; mid and high doses): 4.5 h | half-life (Sprague-Dawley rats; mid dose): 6.19 h | clinical signs (Beagle dogs; 30, 100, 300 mg/kg/d): loose or soft feces and emesis | tolerated dose (Beagle dogs; both, Beagle, dog, in vivo, 7 d): 300 mg/kg | AUC and Cmax levels (Beagle dogs; dog, in vivo): increased in a dose-dependent manner, with day 1 levels higher than those from day 7

From patent US20250339391A1, “METHODS FOR EFFECTIVE MANAGEMENT OF PAIN” (South Rampart Pharma, Inc., priority 2024, published 2025)
